The text below walks through data of ChEMBL document CHEMBL4680288, “Cholesteryl ester transfer protein (CETP) inhibitors based on cyclic urea, bicyclic urea and bicyclic sulfamide cores” (Bioorg Med Chem Lett, 2021).

Data set [1] has as its target T1, Cholesteryl ester transfer protein (Homo sapiens, UniProt P11597).
T1 sequence (P11597 whole entry): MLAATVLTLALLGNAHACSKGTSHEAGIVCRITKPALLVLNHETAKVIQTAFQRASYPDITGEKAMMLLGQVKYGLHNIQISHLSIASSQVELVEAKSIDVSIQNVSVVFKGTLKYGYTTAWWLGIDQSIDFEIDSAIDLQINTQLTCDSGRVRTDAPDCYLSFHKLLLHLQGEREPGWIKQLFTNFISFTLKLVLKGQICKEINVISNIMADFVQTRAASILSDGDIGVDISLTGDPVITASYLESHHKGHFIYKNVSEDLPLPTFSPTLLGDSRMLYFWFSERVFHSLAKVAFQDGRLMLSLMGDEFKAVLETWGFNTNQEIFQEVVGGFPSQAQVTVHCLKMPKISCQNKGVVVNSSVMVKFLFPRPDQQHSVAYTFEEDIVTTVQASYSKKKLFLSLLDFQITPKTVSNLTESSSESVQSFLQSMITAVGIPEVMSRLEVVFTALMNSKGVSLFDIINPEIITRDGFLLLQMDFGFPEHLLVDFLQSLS
In words: Inhibition of recombinant CETP (unknown origin) assessed as inhibition of transfer of [3H] cholesteryl oleate or [3H] triolein between exogenous LDL and HDL in 2% human serum.

Data set [2] deals with T1, Cholesteryl ester transfer protein. In words: Inhibition of CETP in 95% human serum assessed as inhibition of transfer of [3H] cholesteryl oleate or [3H] triolein between LDL and HDL. The format is cell-free.
Data set [3] can be described thus: In vivo inhibition of CETP in cynomolgus-CETP transgenic mouse plasma at 0.3 mg/kg, po measured after 4 hrs. The data set is classed as functional.
Data set [4] in a line: Plasma concentration in cynomolgus-CETP transgenic mouse at 0.3 mg/kg, po measured after 4 hrs. The format is ADME, organism-based.
The nature of data set [5]: In vivo inhibition of CETP in cynomolgus-CETP transgenic mouse assessed as increase in plasma HDL-C level at 0.3 mg/kg, po measured after 4 hrs. Further details: scale not given: the % may be the effect or the level left. The data set is classed as functional.
A short description of data set [6]: Plasma concentration in cynomolgus-CETP transgenic mouse at 1 mg/kg, po measured after 4 hrs. The data set is classed as ADME, organism-based.
Data set [7] is described as follows: In vivo inhibition of CETP in cynomolgus-CETP transgenic mouse plasma at 1 mg/kg, po measured after 4 hrs. The data set is classed as functional.
Data set [8] in a line: In vivo inhibition of CETP in cynomolgus-CETP transgenic mouse assessed as increase in plasma HDL-C level at 1 mg/kg, po measured after 4 hrs. The data set is classed as functional. Details: scale not given: the % may be the effect or the level left.

For orientation: IC50 means the concentration that gives 50% inhibition. In general, inhibition in vivo refers to the percentage by which the read-out fell short of the control.

With `COc1ccc(-c2ccc(C(=O)O)cc2C)cc1-c1ccc(C(F)(F)F)cc1[C@@H]1CC[C@H]2[C@@H](c3cc(C(F)(F)F)cc(C(F)(F)F)c3)NC(=O)N12`, the IC50 in data set [1] came out at 379 nM.

`COc1ccc(-c2cccnc2C)cc1-c1ccc(C(F)(F)F)cc1[C@@H]1CC[C@H]2[C@@H](c3cc(C(F)(F)F)cc(C(F)(F)F)c3)NC(=O)N12`: the half-maximal inhibitory concentration (IC50) in data set [1] amounted to 151 nM.

With `COc1ccc([C@H]2CC[C@H](C(=O)O)CC2)cc1-c1ccc(C(F)(F)F)cc1[C@@H]1CC[C@H]2[C@@H](c3cc(C(F)(F)F)cc(C(F)(F)F)c3)NS(=O)(=O)N12`, the IC50 in data set [2] was found to be 2680 nM; in data set [1], 394 nM.

Take `COc1ccc(-c2ccc(C(=O)O)nc2C)cc1-c1ccc(C(F)(F)F)cc1[C@@H]1CC[C@H]2[C@@H](c3cc(C(F)(F)F)cc(C(F)(F)F)c3)NC(=O)N12`: the concentration for half-maximal inhibition (IC50) in data set [1] is 468 nM.

Turning to `COc1cc(F)c(C(C)C)cc1-c1ccc(C(F)(F)F)cc1CN1C(=O)N[C@H](c2cc(C(F)(F)F)cc(C(F)(F)F)c2)[C@@H]1C`, the IC50 in data set [2] is over 10000 nM; in data set [1] it was 2780 nM.

With `COc1ncc(-c2ccc(C(=O)O)cc2C)cc1-c1ccc(C(F)(F)F)cc1[C@@H]1CC[C@H]2[C@@H](c3cc(C(F)(F)F)cc(C(F)(F)F)c3)N(C)C(=O)N12`, the half-maximal inhibitory concentration (IC50) in data set [1] was 248 nM.

With `COc1ncc(-c2c(C)cc(C(=O)O)cc2C)cc1-c1ccc(C(F)(F)F)cc1[C@@H]1CC[C@H]2[C@@H](c3cc(C(F)(F)F)cc(C(F)(F)F)c3)NC(=O)N12`, in data set [1], the IC50 came out at 104 nM.

On to `COc1ncc(-c2ccc(C(=O)O)cc2C)cc1-c1ccc(C(F)(F)F)cc1CN1C(=O)N(C)[C@H](c2cc(C(F)(F)F)cc(C(F)(F)F)c2)[C@@H]1C`, for which the figures for the concentration for half-maximal inhibition (IC50) in data set [2] and in data set [1] were 129 nM and 28 nM, respectively. Also, in data set [3], testing at 0.3 mg/kg gave an inhibition in vivo of 77%. Also, the concentration at 4 h in data set [4] was 630 nM. Moreover, the Activity in data set [5] came to 51%.

As for `COc1ncc(-c2ccc(C(=O)O)cc2C)cc1-c1ccc(C(F)(F)F)cc1CN1C(=O)N[C@H](c2cc(C(F)(F)F)cc(C(F)(F)F)c2)[C@@H]1C`, the half-maximal inhibitory concentration (IC50) in data set [2] amounted to 397 nM; in data set [1] it was 38 nM.

As for `COc1ccc([C@H]2CC[C@H](C(=O)O)CC2)cc1-c1ccc(C(F)(F)F)cc1[C@@H]1CC[C@H]2[C@@H](c3cc(C(F)(F)F)cc(C(F)(F)F)c3)NC(=O)N12`, the IC50 in data set [2] came to 1730 nM; in data set [1] it was 1110 nM.

With `COc1ccc(-c2ccc(C(=O)O)cc2C)cc1-c1ccc(C(F)(F)F)cc1CN1C(=O)N[C@H](c2cc(C(F)(F)F)cc(C(F)(F)F)c2)[C@@H]1C`, the values for the IC50 in data set [2] and in data set [1] were 339 nM and 37 nM, respectively. Besides, the concentration at 4 h in data set [6] came to 700 nM. In data set [7], the inhibition in vivo at 1 mg/kg worked out at 87%. Also, the Activity in data set [8] is 101%.

Turning to `COc1ncc(-c2c(C)cc(C(=O)NC3(C#N)CC3)cc2C)cc1-c1ccc(C(F)(F)F)cc1[C@@H]1CC[C@H]2[C@@H](c3cc(C(F)(F)F)cc(C(F)(F)F)c3)NC(=O)N12`, the IC50 in data set [2] was 95 nM; in data set [1] it was 55 nM. Moreover, the concentration at 4 h in data set [6] came to 1000 nM. In data set [7], this molecule had an inhibition in vivo at 1 mg/kg of 67%. Moreover, the Activity in data set [8] is 30%.

With `COc1ccc(-c2ccc(C(=O)O)cc2C)cc1-c1ccc(C(F)(F)F)cc1[C@@H]1CC[C@H]2[C@@H](c3cc(C(F)(F)F)cc(C(F)(F)F)c3)NS(=O)(=O)N12`, the 50% inhibitory concentration (IC50) in data set [1] was determined as 135 nM.

With `COc1ccc(-c2ccc(C(=O)O)cc2C)cc1-c1ccc(C(F)(F)F)nc1CN1C(=O)N[C@H](c2cc(C(F)(F)F)cc(C(F)(F)F)c2)[C@@H]1C`, the results for the concentration for half-maximal inhibition (IC50) in data set [2] and in data set [1] were 446 nM and 18 nM, respectively. The same molecule gave a concentration at 4 h in data set [6] of 830 nM. This molecule also registered an inhibition in vivo at 1 mg/kg in data set [7] of 89%. Moreover, the Activity in data set [8] is 86%.

Consider `COc1ccc(CCC(=O)O)cc1-c1ccc(C(F)(F)F)cc1[C@@H]1CC[C@H]2[C@@H](c3cc(C(F)(F)F)cc(C(F)(F)F)c3)NC(=O)N12`, for which, in data set [1], the IC50 amounted to 550 nM.

`COc1ccc(-c2ccc(C(=O)O)cc2C)cc1-c1cnc(C(F)(F)F)cc1[C@@H]1CC[C@H]2[C@@H](c3cc(C(F)(F)F)cc(C(F)(F)F)c3)NC(=O)N12`: the IC50 in data set [1] was 544 nM.

With `COc1ccc(-c2ccc(C(=O)O)cc2C)cc1-c1ccc(C(F)(F)F)cc1[C@@H]1CC[C@H]2[C@@H](c3cc(C(F)(F)F)cc(C(F)(F)F)c3)N(C)C(=O)N12`, in data set [1], the IC50 worked out at 414 nM.

Take `COc1ncc(-c2ccc(C(=O)O)cc2C)cc1-c1ccc(C(F)(F)F)cc1[C@@H]1CC[C@H]2[C@@H](c3cc(C(F)(F)F)cc(C(F)(F)F)c3)NC(=O)N12`: the IC50 in data set [2] was 305 nM; in data set [1], 106 nM. For the same molecule, testing at 0.3 mg/kg in data set [3] gave an inhibition in vivo of 32%. This molecule also gave a concentration at 4 h in data set [4] of 550 nM. Further, the Activity in data set [5] was determined as 58%.

Regarding `COc1ncc(-c2ccc(C(=O)O)cc2C)cc1-c1ccc(C(F)(F)F)nc1CN1C(=O)N[C@H](c2cc(C(F)(F)F)cc(C(F)(F)F)c2)[C@@H]1C`, the half-inhibitory concentration (IC50) in data set [2] worked out at 364 nM; in data set [1] it was 17 nM. Also, in data set [6], the concentration at 4 h was 1260 nM. Besides, in data set [7], the inhibition in vivo at 1 mg/kg was found to be 87%. The Activity in data set [8] was found to be 139%.
